Results taken from patent US9447047B2 (priority 2012, dated 2016).
“Also recorded” adds a separate entry of the source. Where two headings read alike, the source gives them in different places.

Key:
[1] = system: EBOV-eGFP; format: cell-based
[2] = system: HIV-1; test: Inhibition of HIV-1 replication; format: cell-based
[3] = system: EBOV transcription; format: cell-based
[4] = Control cell viability assays (FIG. 18)
[5] = system: EBOV VP30; format: cell-based
[6] = system: Tat-induced HIV transcription in 293T cells; test: Tat-induced HIV transcription in 293T cells transfected with HIV-1 LTR reporter and Tat vectors; format: cell-based
[7] = system: Tat-driven nuclear localization of PP1α; format: cell-based
[8] = system: Vero-E6 cells
[9] = system: CEM cells; test: cells; conditions: Homo sapiens, CCRF-CEM
[10] = system: 293T cells; test: Global cellular proteome of 293T cells by LC-MS-MS; conditions: 10 μM for 18 h
[11] = system: CEM cells
[12] = target: PP1 association with NIPP1, PNUTS and Tat (Homo sapiens, UniProt P62136); format: cell-based
[13] = system: HIV-1 transcription in CEM-GFP cells; test: Tat-dependent HIV-1 transcription LTR-GFP reporter assay in CEM-GFP cells infected with Ad-Tat; format: cell-based
[14] = target: PP1α (Homo sapiens, UniProt P62136); test: Dephosphorylation of generic KT(pT)IRR peptide by recombinant PP1α (malachite green); format: biochemical
[15] = system: interaction of Tat with PP1α; format: cell-based; conditions: 10 μM, 293T cells
[16] = Human immunodeficiency virus 1; read-out: 50% Inhibition of HIV-1 replication
[17] = read-out: Toxicity in CEM cells, IC50
[18] = Human immunodeficiency virus 1, CEM-GFP, 48 h, read-out: Inhibition of HIV-1 Transcription in CEM-GFP cells (IC50, μM)
[19] = read-out: Toxicity in CEM cells, (IC50, μM)

PP1α, sequence (P62136 whole entry): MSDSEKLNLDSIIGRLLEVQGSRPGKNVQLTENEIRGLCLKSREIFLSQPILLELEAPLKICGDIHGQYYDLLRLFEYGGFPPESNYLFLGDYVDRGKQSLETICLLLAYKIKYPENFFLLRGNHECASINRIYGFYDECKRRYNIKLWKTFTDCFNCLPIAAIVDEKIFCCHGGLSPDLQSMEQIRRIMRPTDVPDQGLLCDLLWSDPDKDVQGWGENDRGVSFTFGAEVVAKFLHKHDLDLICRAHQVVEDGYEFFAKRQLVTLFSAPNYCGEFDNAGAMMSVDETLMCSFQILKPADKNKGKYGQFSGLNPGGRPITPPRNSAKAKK
PP1 association with NIPP1, PNUTS and Tat, sequence (P62136 2-330 limits assumed): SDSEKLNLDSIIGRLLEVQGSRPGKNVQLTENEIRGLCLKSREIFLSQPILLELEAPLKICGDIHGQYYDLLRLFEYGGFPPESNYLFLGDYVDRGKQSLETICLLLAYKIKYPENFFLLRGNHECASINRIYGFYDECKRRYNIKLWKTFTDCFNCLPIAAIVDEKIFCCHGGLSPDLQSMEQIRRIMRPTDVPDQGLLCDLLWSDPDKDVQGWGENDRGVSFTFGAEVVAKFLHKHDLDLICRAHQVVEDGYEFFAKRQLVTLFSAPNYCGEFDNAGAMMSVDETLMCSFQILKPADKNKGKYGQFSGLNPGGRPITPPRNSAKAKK

Which results are given for `CCNC(=O)NC(=O)C(C)OC(=O)c1c2c(nc3ccccc13)/C(=C/c1ccc(OC)c(OC)c1)CC2` (stereo not drawn) [1E7-03]?
inhibition of EBOV replication [1]: completely suppressed; HIV-1 inhibition ([2]; FIG. 18): potent HIV-1 inhibitor; IC50 [2, 16]: 3 µM; EBOV transcription [3]: inhibits EBOV transcription; cell viability [4]: maintains the most viability; VP30 phosphorylation [5]: increased; increase of VP30 phosphorylation [5]: 2.7 fold; potency in HIV-1 transcription inhibition in 293T cells (comparison) [6]: equally potent as 1E7; translocation of Tat and PP1 into the nucleus ([7]; fluorescence in nucleus and cytoplasm fractions): inhibited; toxicity [8]: without any detectable cytotoxicity; IC50 [9, 17]: > 20 µM

Which “inhibition of EBOV replication” value [1] does the source give for `CCNC(=O)NC(=O)C(C)OC(=O)c1c2c(nc3ccccc13)/C(=C\c1cccs1)CCC2` (stereo not drawn) [1E7-04] here?
Its value is “highly potent”.

What about the IC50 [2, 16] of the same molecule?
Its IC50 is 3 µM.

What about the “toxicity” value [8] of the same molecule?
The value was “some toxicity”.

And the “toxicity (cell monolayer, words)” value [8]?
The value was “visible toxicity”.

What about the IC50 [9, 17] of the same molecule?
Its IC50 is 7 µM.

Which “inhibition of EBOV replication” value [1] does the source give for `CC(OC(=O)c1c2c(nc3ccccc13)/C(=C/c1cccs1)CCC2)C(=O)NC1CC1` (stereo not drawn) [1E7-05] here?
The value was “highly potent”.

What about the “toxicity” value [8] of the same molecule?
The value was “some toxicity”.

And the “toxicity (cell monolayer, words)” value [8]?
The value was “visible toxicity”.

With `COCCNC(=O)OC(=O)c1c2c(nc3ccccc13)/C(=C\c1ccc(O)cc1)CCC2` [1H4] as the molecule, how does the “effect on cellular proteome” value [10] read?
Its value is “did not significantly change”.

And the “cytotoxicity / toxicity in T cells” value [11]?
The value was “not cytotoxic”.

What about the “Tat association with PP1 (microcystin precipitation)” value [12] of the same molecule?
Its value is “reduced”.

And the “interaction of PP1 with PNUTS or NIPP1” value [12]?
Its value is “without any effect; also recorded: no effect”.

And the IC50 ([2]; Human immunodeficiency virus 1, read-out: 50% Inhibition of HIV-1 replication)?
Its IC50 is 10 µM.

And the IC50 [13, 18]?
Its IC50 is 12.5 µM.

What about the IC50 ([13]; Human immunodeficiency virus 1, read-out: Inhibition Tat-induced HIV transcription in CEM cells, IC50) of the same molecule?
The IC50 was 10 µM.

What about the IC50 ([6]; Human immunodeficiency virus 1, HEK-293T, read-out: Inhibition Tat-induced HIV transcription in 293T cells, IC50) of the same molecule?
The IC50 was 5 µM.

What about the “nuclear PP1α-EGFP fluorescence” value ([7]; 293T cells, nuclear fraction, vs untreated or 1G3) of the same molecule?
The value was “significant decrease”.

And the “nuclear localization of PP1α in the presence of Tat” value ([7]; HeLa cells, 10 μM, 18 hours)?
Its value is “drastically diminished; also recorded: disrupts”.

And the IC50 [9, 19]?
Its IC50 is over 25 µM.

And the IC50 [9, 17]?
The IC50 was 30 µM.

What about the “effect on PP1 enzymatic activity (Vmax and Km, KT(pT)IRR peptide)” value [14] of the same molecule?
The value was “minimal effect; also recorded: no effect”.

What about the “initial velocity V0 of KT(pT)IRR peptide dephosphorylation by PP1α” value ([14]; 1H4 300 μM, without compound V0=1.4) of the same molecule?
The value was 1.3 μM·min^−1.

What about the “PP1α-EGFP co-precipitated with Tat” value [15] of the same molecule?
Its value is “reduced; also recorded: prevents the interaction”.

And the “association of Tat with CDK9/cyclin T1” value [15]?
The value was “no effect”.

Which IC50 [13, 18] does the source give for `CCC(c1nnc(SCC(=O)Nc2ncc(-c3ccc(F)cc3)s2)n1Cc1ccccc1)N(C)C` (stereo not drawn) [T5251659] here?
The IC50 was 10 µM.

What about the IC50 [9, 19] of the same molecule?
The IC50 was 6 µM.

With `CCN(CC)S(=O)(=O)c1ccc2c(c1)nc(CCC(=O)N(C)c1ccc(C(F)(F)F)cc1)n2C` [T5326526] as the molecule, how does the IC50 [13, 18] read?
The IC50 was 15 µM.

What about the IC50 [9, 19] of the same molecule?
The IC50 was 10 µM.

With `CC(OC(=O)c1ccccc1SCC(=O)Nc1ccc2c(c1)OCO2)C(=O)NCCC1=CCCCC1` (stereo not drawn) [T5369370] as the molecule, how does the IC50 [13, 18] read?
Its IC50 is 10 µM.

And the IC50 [9, 19]?
The IC50 was 15 µM.

With `O=S(=O)(Nc1ccc(S(=O)(=O)N2CCC(Cc3ccccc3)CC2)cn1)c1ccccc1` [T5481237] as the molecule, how does the IC50 [13, 18] read?
Its IC50 is 15 µM.

And the IC50 [9, 19]?
The IC50 was 20 µM.

Which IC50 [13, 18] does the source give for `O=C(CNC(=O)c1ccccc1SCC(=O)NC12CC3CC(CC(C3)C1)C2)Nc1ccc(Cl)cc1` [T5498680] here?
Its IC50 is 5 µM.

And the IC50 [9, 19]?
Its IC50 is 5 µM.

With `CN(C1CCCCC1)S(=O)(=O)c1ccc(NC(=O)COc2ccccc2-c2ccccc2)cc1` [T5551920] as the molecule, how does the IC50 [13, 18] read?
Its IC50 is 15 µM.

What about the IC50 [9, 19] of the same molecule?
The IC50 was 15 µM.

For `C=C1[C@@H](O)[C@@H]2O[C@]3(CC[C@H](/C=C/[C@@H](C)[C@@H]4CC(C)=C[C@@]5(O[C@H](C[C@@](C)(O)C(=O)O)CC[C@H]5O)O4)O3)CC[C@H]2O[C@@H]1[C@@H](O)C[C@H](C)[C@H]1O[C@@]2(CCCCO2)CC[C@H]1C` [okadaic acid, reference compound], which “VP30 phosphorylation” value [5] is on record?
The value was “increased”.
